# Data as given in US10821115B2, “Compounds that inhibit Mcl-1 protein” (priority 2017, dated 2020).
# Where two headings read alike, the source gives them in different places.
# Columns and labels:
# [1] = biological target: recombinant human Mcl-1 (residues 171-327) / Bim interaction (Homo sapiens (Human), UniProt Q07820); experiment: biochemical; assay type: binding; details: read-out: Mcl-1 HTRF IC50
# [2] = system: human multiple myeloma cell line, OPM-2; experiment: Cell viability assay (OPM-2 10 FBS), CellTiter-Glo; assay type: cell-based
# Procedure, shortened: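 Cells were seeded at 3000 cells/well in RPMI 1640 with 10% FBS and exposed to serially diluted compounds for 16 h at 37 °C, 5% CO2.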
# [3] = TR-FRET, Mcl-1(171-327) / biotin-Bim (51-76)
# [4] = Homo sapiens, OPM-2, 16 h, read-out: OPM-2 10% FBS IC50 IP, OPM-2 cells, 10% FBS, 16 h, CellTiter-Glo
# [5] = read-out: OPM-2 10% FBS IC50 IP, OPM-2 cells, 10% FBS, 16 h, CellTiter-Glo
# Chain of recombinant human Mcl-1 (residues 171-327) / Bim interaction (Q07820 171-327): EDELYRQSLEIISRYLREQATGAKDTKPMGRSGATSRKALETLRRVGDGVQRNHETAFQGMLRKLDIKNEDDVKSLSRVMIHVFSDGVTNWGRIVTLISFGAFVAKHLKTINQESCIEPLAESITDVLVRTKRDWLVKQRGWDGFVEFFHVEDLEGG
Structure (SMILES),"IC50 [1, 3]","IC50 [2, 4]",IC50 [1],"IC50 [2, 5]"
"C#C[C@]1(O)/C=C/C[C@H](C)[C@@H](C)S(=O)(=O)NC(=O)c2ccc3c(c2)N(C[C@@H]2CC[C@H]21)C[C@@]1(CCCc2cc(Cl)ccc21)CO3 [Example 100244, (1S,3′R,6′R,7′S,8′E,11′S,12′R)-6-chloro-7′-ethynyl-7′-hydroxy-11′,12′-dimethyl-3,4-dihydro-2H,15′H-spiro[naphthalene-1,22′-[20]oxa[13]thia[1,14]diazatetracyclo [14.7.2.0~3,6~.0~19,24~]pentacosa[8,16,18,24]tetraen]-15′-one 13′,13′-dioxide]",0.182 nM,49 nM,,
"C[C@@H]1[C@@H](C)C/C=C/[C@](O)(Cc2nccs2)[C@@H]2CC[C@H]2CN2C[C@@]3(CCCc4cc(Cl)ccc43)COc3ccc(cc32)C(=O)NS1(=O)=O [Example 100245, (1S,3′R,6′R,7′R,8′E,11′S,12′R)-6-chloro-7′-hydroxy-11′,12′-dimethyl-7′-(1,3-thiazol-2-ylmethyl)-3,4-dihydro-2H,15′H-spiro[naphthalene-1,22′-[20]oxa[13]thia[1,14]diazatetracyclo [14.7.2.0~3,6~.0~19,24~]pentacosa[8,16,18,24]tetraen]-15′-one 13′,13′-dioxide]",,,1.71 nM,1980 nM
"C[C@@H]1[C@@H](C)C/C=C/[C@](O)(Cc2nccs2)[C@@H]2CC[C@H]2CN2C[C@@]3(CCCc4cc(Cl)ccc43)COc3ccc(cc32)C(=O)NS1(=O)=O [Example 100246, (1S,3′R,6′R,7′R,8′E,11′S,12′R)-6-chloro-7′-hydroxy-11′,12′-dimethyl-7′-(1,3-thiazol-2-ylmethyl)-3,4-dihydro-2H,15′H-spiro[naphthalene-1,22′-[20]oxa[13]thia[1,14]diazatetracyclo [14.7.2.0~3,6~.0~19,24~]pentacosa[8,16,18,24]tetraen]-15′-one 13′,13′-dioxide]",,,0.326 nM,114 nM
"C[C@@H]1[C@@H](C)C/C=C/[C@@](O)(CC(=O)N(C)c2ccccc2)[C@@H]2CC[C@H]2CN2C[C@@]3(CCCc4cc(Cl)ccc43)COc3ccc(cc32)C(=O)NS1(=O)=O [Example 100247, 2-((1S,3′R,6′R,7′S,8′E,11′S,12′R)-6-chloro-7′-hydroxy-11′,12′-dimethyl-13′,13′-dioxido-15′-oxo-3,4-dihydro-2H-spiro[naphthalene-1,22′-[20]oxa[13]thia[1,14]diazatetracyclo [14.7.2.0~3,6~.0~19,24~]pentacosa[8,16,18,24]tetraen]-7′-yl)-N-methyl-N-phenylacetamide]",0.542 nM,624 nM,,
"CO[C@@]1(C2SCCCS2)CCC[C@H](C)[C@@H](C)S(=O)(=O)NC(=O)c2ccc3c(c2)N(C[C@@H]2CC[C@H]21)C[C@@]1(CCCc2cc(Cl)ccc21)CO3 [Example 100249, (1S,3′R,6′R,7′S,11′S,12′R)-6-chloro-7′-(1,3-dithian-2-yl)-7′-methoxy-11′,12′-dimethyl-3,4-dihydro-2H,15′H-spiro[naphthalene-1,22′-[20]oxa[13]thia[1,14]diazatetracyclo [14.7.2.0~3,6~.0~19,24~]pentacosa[16,18,24]trien]-15′-one 13′,13′-dioxide]",2.99 nM,2270 nM,,
"C[C@@H]1[C@@H](C)C/C=C/[C@@](O)(CC(=O)N2CCCC2)[C@@H]2CC[C@H]2CN2C[C@@]3(CCCc4cc(Cl)ccc43)COc3ccc(cc32)C(=O)NS1(=O)=O [Example 100252, (1S,3′R,6′R,7′S,8′E,11′S,12′R)-6-chloro-7′-hydroxy-11′,12′-dimethyl-7′-(2-oxo-2-(1-pyrrolidinyl)ethyl)-3,4-dihydro-2H,15′H-spiro[naphthalene-1,22′-[20]oxa[13]thia[1,14]diazatetracyclo [14.7.2.0~3,6~.0~19,24~]pentacosa[8,16,18,24]tetraen]-15′-one 13′,13′-dioxide]",0.112 nM,,,77 nM
